We go through 9 molecules from article PMC11555526, “Development of 2-Aminoadenine-Based Proteolysis-Targeting Chimeras (PROTACs) as Novel Potent Degraders of Monopolar Spindle 1 and Aurora Kinases” (ACS Pharmacology & Translational Science, 2024).

In test [1] the test system is MV4-11 cells (naive). Description: alamarBlue cell viability assay. The test is classed as cell-based, human. Particulars: 72 h treatment, MV4-11 cells (naive). The method in brief:
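Cells exposed to compound concentration series or vehicle for 72 h (unless otherwise stated); alamarBlue added a few hours before end point. Read-out by fluorescence (ex 550/em 600 nm) or absorbance (570 nm, 600 nm reference).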
On the technique in general: The colour change of resazurin is a common sign of viable cells or microbes.

For test [2], the target named is T1, AURKA (MV4-11^AURKA-HiBiT cells) (Homo sapiens, UniProt O14965).
T1 construct: expressed in transfected cells; host or cells: MV4-11, lentiviral transduction
T1 sequence (O14965 1-403): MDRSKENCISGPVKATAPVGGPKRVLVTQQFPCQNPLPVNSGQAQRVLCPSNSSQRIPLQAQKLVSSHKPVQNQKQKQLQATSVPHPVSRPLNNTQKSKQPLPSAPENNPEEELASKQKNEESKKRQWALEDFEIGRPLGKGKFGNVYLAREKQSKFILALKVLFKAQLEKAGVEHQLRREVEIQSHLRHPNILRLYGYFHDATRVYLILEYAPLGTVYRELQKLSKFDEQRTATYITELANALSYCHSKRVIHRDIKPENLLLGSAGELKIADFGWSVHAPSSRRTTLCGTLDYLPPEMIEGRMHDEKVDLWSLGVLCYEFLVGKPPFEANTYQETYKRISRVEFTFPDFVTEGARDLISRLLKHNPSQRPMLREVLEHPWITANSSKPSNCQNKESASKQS
Briefly: HiBiT assay, AURKA degradation. The test is classed as cell-based. As to conditions: 6 h treatment, MV4-11^AURKA-HiBiT cells. The method in brief: (§1)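 MV4-11 lines stably expressing HiBiT-tagged AURKA, AURKB or TTK (lentiviral) were treated with serial compound dilutions for the indicated times. Remaining tagged protein was read by lytic HiBiT luminescence, and DC50 was fitted with a four-parameter dose–response equation using concentrations showing sigmoidal behaviour.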
A general note: The HiBiT peptide binds its large partner to form an active luciferase.

Test [3] concerns the target T2, TTK (MV4-11^HiBiT-TTK cells) (Homo sapiens, UniProt P33981).
T2 construct: expressed in transfected cells; host or cells: MV4-11, lentiviral transduction (pRRL-PGK-HiBiT entry vector)
T2 sequence (P33981 1-857): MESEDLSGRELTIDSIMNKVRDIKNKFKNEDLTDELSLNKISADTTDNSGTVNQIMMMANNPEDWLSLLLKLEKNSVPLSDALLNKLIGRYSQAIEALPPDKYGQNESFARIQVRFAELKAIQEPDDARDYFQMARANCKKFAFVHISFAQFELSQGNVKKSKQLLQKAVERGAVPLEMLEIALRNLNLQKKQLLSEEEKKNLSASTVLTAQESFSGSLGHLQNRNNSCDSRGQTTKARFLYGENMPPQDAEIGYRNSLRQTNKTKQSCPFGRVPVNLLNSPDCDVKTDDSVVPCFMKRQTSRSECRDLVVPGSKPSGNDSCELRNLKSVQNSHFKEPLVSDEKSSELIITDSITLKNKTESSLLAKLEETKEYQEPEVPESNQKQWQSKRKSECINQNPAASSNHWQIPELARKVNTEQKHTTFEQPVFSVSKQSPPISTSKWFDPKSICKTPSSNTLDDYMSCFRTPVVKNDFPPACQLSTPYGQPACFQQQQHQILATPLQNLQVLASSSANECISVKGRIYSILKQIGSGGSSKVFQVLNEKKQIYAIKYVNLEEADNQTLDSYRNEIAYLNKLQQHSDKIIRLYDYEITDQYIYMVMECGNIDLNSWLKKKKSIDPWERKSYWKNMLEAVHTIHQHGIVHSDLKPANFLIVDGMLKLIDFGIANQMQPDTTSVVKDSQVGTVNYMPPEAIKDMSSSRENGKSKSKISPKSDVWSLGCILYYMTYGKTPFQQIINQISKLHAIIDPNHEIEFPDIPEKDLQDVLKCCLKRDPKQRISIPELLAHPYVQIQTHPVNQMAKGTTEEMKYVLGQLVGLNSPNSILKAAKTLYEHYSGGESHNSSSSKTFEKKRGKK
Description: HiBiT assay, TTK degradation. Details: key to Dmax (maximal degradation) TTK: compounds with degradation less than 15% reported as “inactive”. The test is classed as cell-based. Particulars: 6 h treatment, MV4-11^HiBiT-TTK cells. The method in brief: as §1

Test [4] deals with T3, AURKB (MV4-11^AURKB-HiBiT cells) (Homo sapiens, UniProt Q96GD4).
T3 construct: expressed in transfected cells; host or cells: MV4-11, lentiviral transduction (pRRL-PGK vector)
T3 sequence (Q96GD4 1-345 isoform Q96GD4-5): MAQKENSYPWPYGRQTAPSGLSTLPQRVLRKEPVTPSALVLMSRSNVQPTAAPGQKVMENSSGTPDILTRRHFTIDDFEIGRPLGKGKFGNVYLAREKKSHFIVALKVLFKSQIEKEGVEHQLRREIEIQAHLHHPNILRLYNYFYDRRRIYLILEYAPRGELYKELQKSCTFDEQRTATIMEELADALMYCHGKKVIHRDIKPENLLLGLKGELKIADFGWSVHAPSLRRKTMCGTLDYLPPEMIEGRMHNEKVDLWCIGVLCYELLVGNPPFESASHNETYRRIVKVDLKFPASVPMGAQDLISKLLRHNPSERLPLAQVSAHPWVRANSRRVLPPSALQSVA
Description: HiBiT assay, AURKB degradation. It is filed as cell-based. As to conditions: 6 h treatment. The method in brief: as §1

Test [5] deals with T4, AURKB (Homo sapiens, UniProt Q96GD4).
T4 construct: endogenous in cells; host or cells: naive MV4-11
T4 sequence (Q96GD4 whole entry): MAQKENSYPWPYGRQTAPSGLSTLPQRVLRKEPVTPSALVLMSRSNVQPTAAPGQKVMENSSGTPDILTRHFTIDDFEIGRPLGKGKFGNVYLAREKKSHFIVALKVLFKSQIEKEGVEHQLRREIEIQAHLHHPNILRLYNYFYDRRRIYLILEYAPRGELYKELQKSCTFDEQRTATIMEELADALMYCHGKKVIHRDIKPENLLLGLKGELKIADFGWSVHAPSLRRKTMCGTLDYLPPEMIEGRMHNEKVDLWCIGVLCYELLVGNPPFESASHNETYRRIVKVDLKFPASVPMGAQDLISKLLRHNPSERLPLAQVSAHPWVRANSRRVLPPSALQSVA
Description: Immunoblot of AURKB in naive MV4-11 cells. It is filed as cell-based. Particulars: 6 h, 0.1 µM. The procedure:
The cells were treated with compounds or vehicle for indicated time points and lysed in RIPA lysis buffer (50 mM HEPES pH 7.9, 140 mM NaCl, 1 mM EDTA, 1% Triton X-100, 0.1% SDS, 0.1% sodium deoxycholate) containing protease and phosphatase inhibitors (Sigma) for 20 min at 4 °C. Cell lysates were cleared by centrifugation, and protein concentration was determined with bicinchoninic acid assay. Equal amounts of protein per sample were separated by Bis-Tris-PAGE and transferred to PVDF membranes (Millipore). The membranes were blocked with 5% (w/v) nonfat dry milk in TBS-T [20 mM Tris–HCl, pH 7.5, 150 mM NaCl, 0.1% (v/v) Tween-20] for 1 h at room temperature and incubated with primary antibody at 4 °C overnight. Visualization was carried out using horseradish peroxidase (HRP)-labeled secondary antibodies and detected using a chemiluminescent HRP substrate (Millipore) in LAS3000 or LAS4000 mini (Fujifilm). Vinculin, GAPDH, or B-actin were used as a loading control. The loading control was probed along with the target antibody by cutting the membrane. For targets with similar molecular weights, the samples were run in duplicate and probed with their respective loading controls, although only one control was shown in the figure for all targets. The signal was quantified using ImageJ or Image Studio Lite against the corresponding loading controls. Antibodies used in this study were as follows: Aurora A/AIK (Cell Signaling Technology, 3092), Aurora B (Bethyl Laboratories, A300–431A), TTK (Santa Cruz Biotechnology, sc-56968), GAPDH (Cell Signaling Technology, 2118), B-Actin (Sigma, A5441), and Vinculin (Sigma, V9131).
α GAPDH α Vinculin α B-Actin
Figure S2: Cellular degradation studies of SF1-based compounds. […]
Immunoblots of TTK and AURKB. Naive MV4-11 cells were treated with indicated concentration of 44 or 47 G)
(E), 18 (F), and 14 or 20 (G) for 6 h and compared with vehicle treated cells. […]
All HiBiT data are represented as a mean ±s.d. from n=2 replicates. […]
For orientation: Immunoblotting shows a protein as a band on a membrane.

Test [6] relates to AURKA. Details: method as in PMID 32338514, PMID 27905678, PMID 27437075, PMID 30232224, PMID 27699881. As to conditions: literature values, introduction and Figure 1; cited from earlier work.
Test [7] has as its system AURKB. On the set-up: method as in PMID 32338514, PMID 27905678, PMID 27437075, PMID 30232224, PMID 27699881. Particulars: literature values, introduction and Figure 1; cited from earlier work.
In test [8] the test system is AURKA. As to conditions: reported PROTACs; cited from earlier work.
The subject of test [9] is TTK. Details: method as in PMID 35084180. As to conditions: reported PROTAC; cited from earlier work.
Test [10] has as its system human TTK. Details: method as in PMID 23940287, PMID 32338514, PMID 27905678, PMID 27437075, PMID 30232224. As to conditions: literature values, introduction and Figure 1; cited from earlier work.
Test [11] relates to AURKC. As to conditions: read-out: AURKC IC50; literature value, introduction; cited from earlier work.

Molecules are shown by their SMILES. pEC50, pIC50: −log10 of the molar value.

Consider `Cc1ncsc1-c1ccc(CNC(=O)[C@@H]2C[C@@H](O)CN2C(=O)[C@@H](NC(=O)CCC(=O)NCC(=O)N2CCN(c3ccc(Nc4nc(Nc5ccccc5S(=O)(=O)C(C)C)c5nc[nH]c5n4)cc3)CC2)C(C)(C)C)cc1` [Compound 47], for which the “EC50 (concentration that decreases cell viability by 50%)” value in [1] is “— (compounds with decrease of cell viability less than 50% were not calculated and reported as “—”)”. Also, in test [2], the “DC50 (half-maximal degradation concentration) AURKA” value is “– (compounds with degradation less than 25% were not calculated and reported as “–”)”; the “Dmax (maximal degradation) AURKA” value amounted to 21.70%. Besides, in test [3], the “DC50 (half-maximal degradation concentration) TTK” value is “– (compounds with degradation less than 25% were not calculated and reported as “–”)”; the “Dmax (maximal degradation) TTK” value is “inactive”. For the same molecule, in [4], the “DC50 (half-maximal degradation concentration) AURKB” value is “– (compounds with degradation less than 25% were not calculated and reported as “–”)”; the “Dmax (maximal degradation) AURKB” value stood at 20.20%. Also, in test [5], the “relative AURKB level (immunoblot quantification, vehicle = 1.00)” value is 1.00.

As for `O=C(Nc1c[nH]nc1-c1nc2ccc(CN3CCOCC3)cc2[nH]1)NC1CC1` [AT9283], the pIC50 in test [6] and in [7] was 8.52 in each case.

Regarding `O=C(COc1cccc2c1C(=O)N(C1CCC(=O)NC1=O)C2=O)NCCOCCOCCNC(=O)C1(Cc2cccc(Nc3nccs3)n2)CCC(Oc2cccc(Cl)c2F)CC1` (stereo not drawn) [JB300], the DC50 in test [8] is 30 nM.

In the case of `CCC(=O)N[C@H]1CC[C@@H](n2c(=O)cc(C)c3cnc(Nc4ccc(N5CCN(C(=O)CCCC#Cc6ccc7c(c6)CN(C6CCC(=O)NC6=O)C7=O)CC5)cc4OC)nc32)CC1` (stereo partly drawn) [LJB-1113157], in test [9], the DC50 was 3.1 nM.

For the molecule `COc1cc(S(C)(=O)=O)ccc1Nc1nc2ccc(-c3ccc(NC(=O)[C@H](C)c4ccc(F)cc4)cc3)cn2n1` [BAY1161909], the pIC50 (usually the IC50 on a negative log10 scale, so that one unit is a factor of ten) in test [10] is 9.00.

For `c1nc2nc(Nc3ccc(N4CCOCC4)cc3)nc(NC3CCCCC3)c2[nH]1` [Reversine], the pIC50 in test [11] was 6.40.

As to `COc1cc(Nc2ncc3c(n2)-c2ccc(Cl)cc2C(c2c(F)cccc2OC)=NC3)ccc1C(=O)NCCOCCOCCNC(=O)COc1cccc2c1C(=O)N(C1CCC(=O)NC1=O)C2=O` (stereo not drawn) [JB170], the DC50 in [8] is 28 nM.

As for `Cc1cc(-c2cnn3c(NC[C@H]4C[C@@](C)(O)C4)cc(Oc4cccnc4)nc23)ccc1C(=O)NC1CC1` [CFI-402257], the pIC50 in test [10] was 9.00.

With `COc1cc(N2CCC(O)CC2)ccc1Nc1nc(Nc2ccccc2S(=O)(=O)C(C)C)c2nc[nH]c2n1` [MPS1-IN-3, reference compound], the pEC50 in test [1] (Homo sapiens, read-out: EC50 (concentration that decreases cell viability by 50%)) was 5.89. For the same molecule, the DC50 in test [2] (read-out: DC50 (half-maximal degradation concentration) AURKA) worked out at 998 nM; in test [4] (read-out: DC50 (half-maximal degradation concentration) AURKB), 3210 nM. Moreover, the Dmax (usually the largest share of the target that was removed) in test [2] (read-out: Dmax (maximal degradation) AURKA) came to 41.7%; in test [4] (read-out: Dmax (maximal degradation) AURKB), 43.3%. In addition, in test [10], the pIC50 is 7.30. In addition, the “DC50 (half-maximal degradation concentration) TTK” value in test [3] was “– (compounds with degradation less than 25% were not calculated and reported as “–”)”. In addition, the “Dmax (maximal degradation) TTK” value in test [3] is “inactive”.
